Data: patent US12480948B2, “Ratiometric fluorescent probe for detecting aminopeptidase N, and preparation method and use thereof” (Jilin University, priority 2022, dated 2025)

Assays:
[1] = target: T1, APN in liver (Mus musculus, UniProt P97449); experiment: In vivo imaging of APN activity in nude mice with DILI; parameters: species or system nude mouse; conditions: 300 mg/kg APAP intraperitoneal, 12 h after NB-APN tail vein injection
T1 construct: from tissue; host or cells: liver of nude mice, in vivo
T1 sequence (P97449 1-966): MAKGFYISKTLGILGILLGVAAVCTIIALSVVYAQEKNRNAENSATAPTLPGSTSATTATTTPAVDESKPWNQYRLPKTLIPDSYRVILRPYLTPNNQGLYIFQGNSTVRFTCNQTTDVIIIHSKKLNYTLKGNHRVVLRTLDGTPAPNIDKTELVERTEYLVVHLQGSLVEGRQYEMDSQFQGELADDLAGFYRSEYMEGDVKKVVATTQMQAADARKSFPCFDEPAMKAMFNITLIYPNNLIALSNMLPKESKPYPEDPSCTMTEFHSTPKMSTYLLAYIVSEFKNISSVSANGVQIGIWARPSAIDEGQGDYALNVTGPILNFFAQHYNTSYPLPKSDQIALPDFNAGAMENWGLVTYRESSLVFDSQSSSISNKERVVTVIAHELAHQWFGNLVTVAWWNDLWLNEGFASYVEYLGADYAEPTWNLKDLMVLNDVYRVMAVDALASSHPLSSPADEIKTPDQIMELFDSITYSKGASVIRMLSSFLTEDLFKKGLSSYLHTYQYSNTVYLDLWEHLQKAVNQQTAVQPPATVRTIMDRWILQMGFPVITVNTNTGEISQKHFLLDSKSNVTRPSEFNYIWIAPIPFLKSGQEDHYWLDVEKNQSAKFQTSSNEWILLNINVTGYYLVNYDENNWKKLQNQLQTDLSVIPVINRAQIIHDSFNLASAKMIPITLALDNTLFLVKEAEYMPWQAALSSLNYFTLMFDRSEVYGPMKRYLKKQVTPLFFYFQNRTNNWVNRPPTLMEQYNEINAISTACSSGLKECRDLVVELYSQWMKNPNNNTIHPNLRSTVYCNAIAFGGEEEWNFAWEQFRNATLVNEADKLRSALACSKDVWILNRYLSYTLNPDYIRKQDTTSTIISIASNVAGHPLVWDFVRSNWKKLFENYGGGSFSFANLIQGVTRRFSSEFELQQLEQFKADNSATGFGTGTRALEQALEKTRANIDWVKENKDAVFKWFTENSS
Description: The NB-APN was used to image the activity of APN in nude mice with DILI. Nude mice were intraperitoneally pre-injected with pH 7.4 PBS (control), and then injected with NB-APN through the tail vein. The background fluorescence signal of the nude mice was extremely low 6 h and 12 h after the NB-APN injection. […] In addition, the nude mouse with DILI was sacrificed, and the main organs (heart, liver, spleen, lung, and kidney) and the tumor were collected for imaging after 3 h of NB-APN pretreatment.

[2] = test system: APN in HepG2 cells; experiment: APAP-induced hepatotoxicity and hepatoprotective drugs in HepG2 cells, imaged with NB-APN; assay type: cell-based, human; conditions: for effect on the red fluorescence of HepG2 cells: drug 300 μM + APAP 1,000 μM + NB-APN 5 μM
Text: It has been reported that the excessive use of antipyretic analgesic acetaminophen (APAP) can cause drug-induced liver injury, during which process an APN concentration increases. The present disclosure also evaluates the performance of NB-APN in monitoring APN changes during APAP-induced acute hepatotoxicity and a drug treatment thereof. The NB-APN was used to evaluate the production of APN in APAP-stimulated cells. […] Furthermore, the NB-APN was used to study a relationship between the hepatotoxicity therapy and the APN level in living cells. Four drugs (NAC, GSH, TIO, and Glu) were investigated as anti-DILI hepatoprotective agents. […] This may be because the intake of GSH helps to improve the detoxification ability of the liver and reduce the damage of APAP to the liver. In addition, the western blot result was also consistent with the result of fluorescent imaging.

[3] = target: T2, APN in liver cancer cells HepG2 (Homo sapiens, UniProt P15144); experiment: Confocal ratiometric cell imaging of APN, HepG2; assay type: cell-based; conditions: HepG2, bestatin 100 μM pre-treatment 1 h, NB-APN 5 μM 30 min
T2 construct: after acting on HepG2 cells, indicating the existence of intrinsic APN; endogenous in cells; host or cells: HepG2
T2 sequence (P15144 whole entry): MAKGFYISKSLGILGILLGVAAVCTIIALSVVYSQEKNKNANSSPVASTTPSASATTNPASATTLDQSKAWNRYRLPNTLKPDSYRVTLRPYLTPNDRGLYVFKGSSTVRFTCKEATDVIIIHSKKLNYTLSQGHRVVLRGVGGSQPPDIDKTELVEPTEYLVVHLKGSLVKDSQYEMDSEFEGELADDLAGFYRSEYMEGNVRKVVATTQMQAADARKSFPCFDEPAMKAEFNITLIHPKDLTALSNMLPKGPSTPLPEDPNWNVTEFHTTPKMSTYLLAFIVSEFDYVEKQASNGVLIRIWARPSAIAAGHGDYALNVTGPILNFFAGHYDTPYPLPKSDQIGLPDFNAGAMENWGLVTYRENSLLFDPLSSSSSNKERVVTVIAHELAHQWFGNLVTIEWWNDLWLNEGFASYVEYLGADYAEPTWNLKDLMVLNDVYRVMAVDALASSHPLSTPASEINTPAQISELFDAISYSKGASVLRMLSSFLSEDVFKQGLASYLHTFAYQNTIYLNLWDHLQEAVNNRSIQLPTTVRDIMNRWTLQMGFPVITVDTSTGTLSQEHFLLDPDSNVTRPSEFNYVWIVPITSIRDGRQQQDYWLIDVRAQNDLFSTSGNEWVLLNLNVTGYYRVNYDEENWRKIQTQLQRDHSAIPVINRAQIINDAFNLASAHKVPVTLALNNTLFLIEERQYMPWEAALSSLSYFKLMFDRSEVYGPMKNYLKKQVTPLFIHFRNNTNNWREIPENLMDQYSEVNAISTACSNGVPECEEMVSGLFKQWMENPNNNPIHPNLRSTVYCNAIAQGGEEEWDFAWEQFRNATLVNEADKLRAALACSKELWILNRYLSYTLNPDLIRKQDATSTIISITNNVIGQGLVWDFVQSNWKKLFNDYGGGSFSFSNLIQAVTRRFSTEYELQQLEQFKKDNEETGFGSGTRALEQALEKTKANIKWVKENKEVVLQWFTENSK
Description: (§1) The probe NB-APN was used for the imaging analysis of APN in liver cancer cells HepG2 and normal hepatocytes LO2. A confocal fluorescence microscope was adopted, and an excitation light source with a wavelength of 559 nm was adopted. The light emitted from a yellow channel (580 nm to 620 nm) and a red channel (660 nm to 700 nm) was collected. The HepG2 cells and LO2 cells were each pre-treated with bestatin (100 μM) for 1 h and then incubated with NB-APN (5 μM) for 30 min.

[4] = target: APN (Homo sapiens, UniProt P15144); experiment: Inhibitor experiments with bestatin in the NB-APN + APN system; assay type: biochemical; conditions: bestatin 1 μM and 10 μM, APN 25 ng/mL, NB-APN 10 μM, 37° C., pH 7.4, 20 min
Chain of APN (P15144 whole entry, species assumed): as the sequence (P15144 whole entry) above
Description: Inhibitor experiments: a: NB-APN (10 μM); b: system (a)+APN (25 ng/mL); c: system (b)+bestatin (1 μM); and d: system (b)+bestatin (10 μM).
The influence of different concentrations of bestatin on the fluorescence ratio I675/I610 of 10 μM NB-APN (green) or 10 μM NB (red) was investigated, with λex=560 nm, 37° C., pH 7.4, 20 min.

[5] = target: T3, APN in transplanted tumor (Homo sapiens, UniProt P15144); experiment: In vivo fluorescent imaging of HepG2 tumor-transplanted nude mice; parameters: species or system nude mouse; conditions: 50 μL bestatin (100 μM) pre-injected 1 h before NB-APN
T3 construct: from tissue; host or cells: HepG2 xenograft tumour in nude mouse
T3 sequence (P15144 whole entry): as above
Description: Transplanted tumors from two nude mice were respectively pre-injected with 50 μL of PBS (control) and bestatin (100 μM), and 1 h later, 50 μL of NB-APN (50 μM) was intratumorally injected. Imaging was conducted at different time points (0 h, 0.25 h, 0.5 h, 1.0 h, 2.0 h, and 4.0 h) after the NB-APN injection.
The intratumoral injection was adopted to study tumor imaging in a nude mouse liver cancer model under the red luminescence channel, and results are shown in FIG. 12. The fluorescence background of the nude mouse before the probe injection was very low. […] It can be considered accordingly that the fluorescence signal in a tumor is caused by the enzymatic activity of APN and thus the probe NB-APN can detect APN at a living organism level.

[6] = target: T4, APN in normal hepatocytes LO2 (Homo sapiens, UniProt P15144); experiment: Confocal ratiometric cell imaging of APN, LO2; assay type: cell-based; conditions: LO2, bestatin 100 μM pre-treatment 1 h, NB-APN 5 μM 30 min
T4 construct: endogenous in cells; host or cells: LO2
T4 sequence (P15144 whole entry): as above
Description: as §1

Q: For `CC(=O)Nc1ccc(O)cc1` [APAP, acetaminophen], which “liver fluorescence (APN expression) in nude mice” value [1] is on record?
A: Its value is “strong fluorescence appeared in the liver”.

Q: And the “change of R value (APN level) with APAP concentration” value ([2]; HepG2, APAP 500 μM and 1,000 μM, NB-APN 5 μM)?
A: The value was “gradual increase in the R value”.

Q: With `N[C@@H](CCC(=O)N[C@@H](CS)C(=O)NCC(=O)O)C(=O)O` [GSH, glutathione] as the compound, how does the “anti-hepatotoxic effect with APN as hepatotoxicity index, compared” value ([2]; drug 300 μM + APAP 1,000 μM) read?
A: The value was “better than that of NAC and Glu, but worse than that of TIO”.

Q: And the “effect on the red fluorescence of HepG2 cells” value (from here on “effect on the red fluorescence”) [2]?
A: Its value is “obvious inhibitory effect”.

Q: With `CC(=O)N[C@@H](CS)C(=O)O` [NAC] as the compound, how does the “effect on the red fluorescence” value [2] read?
A: Its value is “obvious inhibitory effect”.

Q: With `CC(S)C(=O)NCC(=O)O` (stereo not shown) [TIO] as the compound, how does the “effect on the red fluorescence” value [2] read?
A: Its value is “obvious inhibitory effect”.

Q: Which “effect on intracellular fluorescence ratio R” value [3] does the source give for `CC(C)C[C@H](NC(=O)[C@@H](O)[C@H](N)Cc1ccccc1)C(=O)O` [bestatin] here?
A: Its value is “significantly reduced”.

Q: And the “effect on the fluorescence ratio signal I675/I610 of the NB-APN + APN system” value [4]?
A: Its value is “significant inhibitory effect”.

Q: And the “fluorescence signal at the tumor site compared with the group without inhibitor” value [5]?
A: The value was “significantly weaker”.

Q: What about the “effect on intracellular fluorescence ratio R” value [6] of the same compound?
A: Its value is “significantly reduced”.
